Test results as given in patent publication US20090181392A1, “Transgenic Zebrafish Models for Neurodegenerative Diseases” (priority 2001, published 2009).
Entries after “also recorded” stand apart in the source; their conditions may differ.

System: dopaminergic neurons in zebrafish embryos
Experiment: MPTP neurotoxicity and neuroprotection in zebrafish embryos, whole mount in situ hybridization with tyrosine hydroxylase probe
Format: in vivo, zebrafish (Danio rerio)
Details: for protection of neurons from MPTP-induced damage: coculture/coincubation of embryos with MPTP 10 μg/mL (43 μM)
Method: Mating pairs of adult zebrafish are placed in mating cages in the evening. The following morning, eggs are collected from the bottom of the mating cage and fertile embryos are placed in fresh fish water. At the end of the day, (embryos should be at the late gastrulation stage) phenylthiourea (PTU, Sigma-Aldrich) is added to a final concentration of 0.003% to prevent formation of pigment. At approximately 24 hours past fertilization (hpf), embryos are transferred to a 24 or 96 well plate for treatment in different concentrations of neurotoxins. Zebrafish embryos at this stage in development have completed much of their brain development and primary neurogenesis (Kimmel, et al., 1995). Motor neurons and some dopaminergic neurons are detectable at this stage (Eisen, et al., 1986; Guo, et al., 1999).
Initial concentrations of neurotoxins, including MPTP, hydroxydopamine, NMDA and THA (all purchased from Sigma-Aldrich), are determined based on the concentrations administered to goldfish (Goping, et al., 1995) and that used in cultured spinal cord explant experiments (Rothstein, et al., 1993; Annis and Vaugn, 1998). One of skill can adjust the concentrations depending on the level of neuronal damage desired and the time frame for neuronal damage.
After embryos are secured in plates with lids, plates are transferred to an incubator, preset to 28.5° C., the optimal temperature for zebrafish development. At different time points (1, 2, and 3 days after treatment), untreated embryos and embryos treated with MPTP or hydroxydopamine are fixed in 4% paraformaldehyde and prepared for in situ hybridization and/or immunohistochemistry.
In situ hybridization is performed as described by Thisse, et al. (1993). A plasmid containing a partial cDNA sequence encoding tyrosine hydroxylase was obtained from A. Rosenthal (Guo, et al., 1999). An antisense RNA probe to this gene can be synthesized by in vitro transcription, incorporating digoxygenin-labeled UTP (Roche Molecular Biochemicals). Embryos are hybridized with probe overnight at 70 degrees in 50% formamide buffer. After several washes, embryos are incubated overnight with an antibody to digoxygenin conjugated to alkaline phosphatase (Roche Molecular Biochemicals). […]
This study is performed essentially as described above, except that neuroprotective drugs (levodopa, deprenyl, and D-AP5, Sigma-Aldrich) are added to the embryo cultures at selected time points, both concurrently with neurotoxins and after neurotoxins have exerted their effects. Initial concentrations are determined based on that used in goldfish and tissue culture expeirments. Again, results are measured by examination of neurons in both a qualitative and quantitative manner, as described above. […]

Compound | effect on non-dopaminergic cell populations (MPTP 10 μg/mL (43 μM), 5 day old embryo, tyrosine hydroxylase in situ hybridization (FIG. 2)) | effect on dopaminergic neurons / dopaminergic populations (MPTP 10 μg/mL (about 43 μM), embryos soaked, 5 day old embryo, tyrosine hydroxylase in situ hybridization (FIG. 2)) | protection of neurons from MPTP-induced damage | protection of neurons from MPTP-induced damage (listed as deprenyl)
CN1CC=C(c2ccccc2)CC1 [MPTP, 1-methyl-4-phenyl-1,2,3,6-tetrahydropyridine] | unchanged | destroys dopaminergic populations; also recorded: significantly reduced | – | –
C#CCN(C)[C@H](C)Cc1ccccc1 [L-deprenyl] | – | – | MPTP-induced damage can be prevented | protects neurons
